Data set [1] concerns the target T1, recombinant human PREP (rhPREP) (Homo sapiens, UniProt P48147).
T1 sequence (P48147 1-710): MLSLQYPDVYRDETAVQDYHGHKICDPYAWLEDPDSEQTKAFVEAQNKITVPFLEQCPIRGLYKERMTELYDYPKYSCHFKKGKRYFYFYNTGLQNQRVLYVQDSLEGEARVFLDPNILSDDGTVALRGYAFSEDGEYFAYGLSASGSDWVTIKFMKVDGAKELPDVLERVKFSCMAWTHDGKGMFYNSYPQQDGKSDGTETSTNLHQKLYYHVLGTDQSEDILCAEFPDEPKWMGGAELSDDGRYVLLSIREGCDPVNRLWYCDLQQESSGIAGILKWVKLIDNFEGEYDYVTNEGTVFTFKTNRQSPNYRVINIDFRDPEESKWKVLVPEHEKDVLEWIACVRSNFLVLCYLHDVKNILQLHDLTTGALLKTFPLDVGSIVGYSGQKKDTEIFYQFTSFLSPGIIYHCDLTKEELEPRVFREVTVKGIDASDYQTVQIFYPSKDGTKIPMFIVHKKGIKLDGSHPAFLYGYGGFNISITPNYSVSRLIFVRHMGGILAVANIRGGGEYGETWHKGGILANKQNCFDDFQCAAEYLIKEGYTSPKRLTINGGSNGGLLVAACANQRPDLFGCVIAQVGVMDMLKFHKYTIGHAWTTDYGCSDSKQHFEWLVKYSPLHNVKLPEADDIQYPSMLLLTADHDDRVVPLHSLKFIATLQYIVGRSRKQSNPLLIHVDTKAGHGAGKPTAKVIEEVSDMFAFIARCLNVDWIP
The data set can be described thus: PREP enzymatic activity assay. The settings on record: Z-Gly-Pro-AMC substrate. It is filed as biochemical. As to the method: 7-Amino-4-Methylcoumarin (AMC) release was detected by measuring fluorescence at Ex/Em 380/460 nm using a Multifunction Microplate Reader (Synergy 4, Biotek). All measurements were carried out in triplicate.

Another data set has as its target T2, mouse plasma FAPα (Mus musculus, UniProt P97321).
T2 construct: from tissue; host or cells: mouse plasma (C57BL/6, EDTA)
T2 sequence (P97321 24-761 limits assumed): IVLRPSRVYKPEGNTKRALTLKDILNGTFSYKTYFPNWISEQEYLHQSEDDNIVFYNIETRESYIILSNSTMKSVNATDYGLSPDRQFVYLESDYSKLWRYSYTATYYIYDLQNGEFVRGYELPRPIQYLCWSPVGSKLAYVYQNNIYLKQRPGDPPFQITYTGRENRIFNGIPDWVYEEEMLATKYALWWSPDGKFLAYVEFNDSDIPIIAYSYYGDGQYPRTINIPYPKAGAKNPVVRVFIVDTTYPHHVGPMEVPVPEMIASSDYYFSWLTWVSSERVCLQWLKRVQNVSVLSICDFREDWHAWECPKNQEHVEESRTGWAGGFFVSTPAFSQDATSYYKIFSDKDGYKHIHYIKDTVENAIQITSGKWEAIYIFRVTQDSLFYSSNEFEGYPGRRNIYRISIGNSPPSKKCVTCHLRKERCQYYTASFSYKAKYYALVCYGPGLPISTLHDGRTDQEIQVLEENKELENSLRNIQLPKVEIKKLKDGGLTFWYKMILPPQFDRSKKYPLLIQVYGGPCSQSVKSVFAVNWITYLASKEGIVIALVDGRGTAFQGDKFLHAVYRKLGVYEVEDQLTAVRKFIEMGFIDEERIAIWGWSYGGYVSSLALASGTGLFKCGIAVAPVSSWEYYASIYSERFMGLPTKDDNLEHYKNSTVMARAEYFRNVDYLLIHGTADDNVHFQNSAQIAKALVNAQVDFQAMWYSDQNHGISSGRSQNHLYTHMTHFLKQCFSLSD
The data set can be described thus: FAPα enzymatic activity in mouse plasma. It is filed as biochemical. Particulars: C57BL/6 mouse plasma. As to the method:
The blood sample was immediately centrifuged at approximately 9000 g at 4° C. for 5 minutes. Plasma was separated and stored at −80° C. in aliquots of 300 μL. […] The assay was performed for 1 hour at 37° C. protected from light. 7-Amino-4-Methylcoumarin (AMC) release was detected measuring fluorescence at an excitation wavelength of 380 nm and an emission wavelength of 460 nm using a Multifunction Microplate Reader (Synergy 4, Biotek). All measurements were carried out at least as a single point.

Data set [2] in a line: Intravenous and oral bioavailability in mice. The format is in vivo. Particulars: mouse; for bioavailability: PO 10 mg/kg vs IV 2 mg/kg, read-out: F (bioavailability); for AUC(0-t): oral (PO) 10 mg/kg single dose. How it is done:
The pharmacokinetic properties of exemplary test compounds were assayed after administration of an intravenous (IV) 2 mg/kg or oral (PO) 10 mg/kg single dose in mice. Exemplary test compounds were formulated at 0.4 and 1 mg/ml in a vehicle containing Poly-Ethylene Glycol 200 (PEG200; Cat. No. #P3015, Sigma Aldrich) and distilled water (dH2O) (50/50, v/v) as dosing solutions for intravenous and oral administration, respectively.
C57BL/6j and Balb/c mice, approximately 8-10 weeks old, were obtained from the vivarium Fundación Ciencia & Vida Chile (Santiago, Chile) and maintained in a temperature-controlled room with 12/12 hr light/dark schedule with food and water ad libitum. Animals were acclimated for a minimum period of 4 days upon arrival at the testing facility.
On the day of study, mice were weighed and identified by marking the tail with numbers using a non-toxic permanent marker for designation into the experimental groups (n=3 per group). Each mouse in the IV dosing groups received a systemic bolus of 2 mg/kg dosing solution via the caudal vein.
Non-dosed mice were used to collect samples of zero time points. […] Blood samples were centrifuged immediately at 9,000 g at 4° C. for 5 min and the plasma was separated.
The plasma samples were analyzed by QTRAP 4500 triple quadrupole mass spectrometer (Applied Biosystems SCIEX) in positive or negative ion mode depending on the tested compound and interfaced with an ekspert ultraLC 100-XL UPLC System (eksigent) to determine the concentration of the exemplary test compound. […] The precipitated samples were centrifuged at 6,100 g for 30 min at 4° C. Following centrifugation, an aliquot of each supernatant was transferred into a clean sample vial and diluted with two volumes of aqueous mobile phase (0.2% formic acid in water). Samples were injected onto a reverse phase analytical column (YMC Triart C18; 2.0×50 mm; 1.9 μm; YMC CO) and eluted with a gradient of 0.1 or 0.2% formic acid in Acetonitrile. Test compound and internal standard were monitored by a multiple reaction monitoring (MRM) experiment using Analyst software (v1.6.2, Applied Biosystems SCIEX). Quantitation was conducted using MultiQuant software (v2.1, Applied Biosystems SCIEX) and the resulting calibration curve was fitted with a linear or quadratic regression and 1/x weighting.
IV and PO PK parameters were calculated from the concentration-time data using Phoenix WinNonlin software (v6.4, Certara, Princeton, N.J.) by noncompartmental analysis. Area under the concentration-time curve (AUClast) was estimated using a log-linear trapezoidal method, from the dosing time to the last measurable concentration.

Where [3] appears, read: PRXS-AMC substrate, read-out: mouse plasma FAPα (PRXS-AMC) (exo IC50).

Read-outs that look alike come from different tables or passages of the source.

Take `N#C[C@@H]1CC(F)(F)CN1C(=O)CNC(=O)c1ccncc1C1=CCNCC1` [Compound 105, (S)—N-(2-(2-cyano-4,4-difluoropyrrolidin-1-yl)-2-oxoethyl)-1′,2′,3′,6′-tetrahydro-[3,4′-bipyridine]-4-carboxamide 2,2,2-trifluoroacetate]: the IC50 is more than 10000 nM in data set [1] and less than 1000 nM at mouse plasma FAPα (setting [3]). For the same molecule, in data set [2] (in vivo), the bioavailability worked out at 3%. In addition, in data set [2] (in vivo, plasma), the AUC(0-t) stood at 18.3 ng·h/mL.
As to `N#C[C@@H]1CC(F)(F)CN1C(=O)CNC(=O)c1ccncc1-c1ccc(F)cc1` [Compound 52, (S)—N-(2-(2-cyano-4,4-difluoropyrrolidin-1-yl)-2-oxoethyl)-3-(4-fluorophenyl)isonicotinamide], the IC50 is more than 10000 nM in data set [1]; less than 1000 nM at mouse plasma FAPα (setting [3]); less than 1000 nM on mouse plasma FAPα (Z-Gly-Pro-AMC substrate, read-out: mouse plasma FAPα (Z-Gly-Pro-AMC) (exo IC50)). Further, the AUC(0-t) in data set [2] (plasma) is 721 ng·h/mL. Besides, the bioavailability in data set [2] (plasma) amounted to 30.3%.
